Experimental data: patent US20210321645A1, “STABILIZER FOR PYRROLOQUINOLINE QUINONE, COMPOSITION COMPRISING THE SAME, AND METHOD OF STABILIZATION” (Mitsubishi Gas Chemical Company, Inc., priority 2018, published 2021)

Assay: Accelerated storage test of beverages, BioPQQ recovery by HPLC
Type: physicochemical
Conditions: beverages stored at 60° C. (Table 5), in words
Description: Analysis conditions of pyrroloquinoline quinone disodium salt
HPLC Conditions: • Shimadzu LC-2010 • Column: YMC-Pack ODS-A • Detection wavelength: 259 nm • Mobile phase: 30 mM acetic acid-70 mM ammonium acetate • Column temperature: 40° C.
(Accelerated Storage Test)
The sample of Example 1 was stored under the conditions of 60° C. for 2 weeks, which are equivalent to those of room temperature for 2 years. When the stored sample was subjected to HPLC, 97% of BioPQQ was recovered.

OC[C@@H](O)[C@@H](O)CO [Erythritol]
stabilizing effect on BioPQQ: high stabilizing effect
